Experimental data taken from ChEMBL document CHEMBL1201862, “PubChem BioAssay data set” (2004).
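Each compound was tested at five concentrations against cells in 96-well plates for 48 hours. Here, GI50 denotes the concentration required for 50% inhibition of growth.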 Active and inactive are the calls of the source. No stated cut-off is given here; in the data, active = GI50 up to about 1.1 µM and inactive = higher.

Tests used:
Assay in all cases: NCI tumour cell line growth inhibition, 48 h
SK-MEL-5 = test system: SK-MEL-5
Malme-3M = test system: Malme-3M
SF-295 = test system: SF-295
HL-60 = test system: HL-60
SF-539 = test system: SF-539
TK-10 = test system: TK-10
XF498 = test system: XF498
SF-268 = test system: SF-268
MOLT-4 = test system: MOLT-4
SNB-19 = test system: SNB-19
M14 = test system: M14
SW-620 = test system: SW-620
IGROV-1 = test system: IGROV-1
SK-MEL-2 = test system: SK-MEL-2
COLO 205 = test system: COLO 205
EKVX = test system: EKVX
ACHN = test system: ACHN
RXF 631 = test system: RXF 631
U-251 = test system: U-251
HOP-62 = test system: HOP-62
SN12C = test system: SN12C
CCRF-CEM = test system: CCRF-CEM
RXF 393 = test system: RXF 393
UACC-257 = test system: UACC-257
HOP-92 = test system: HOP-92
786-0 = test system: 786-0
HCC 2998 = test system: HCC 2998
SNB-78 = test system: SNB-78
UO-31 = test system: UO-31
CAKI-1 = test system: CAKI-1
OVCAR-8 = test system: OVCAR-8
KM-20L2 = test system: KM-20L2
UACC-62 = test system: UACC-62
NCI-H460 = test system: NCI-H460
DLD-1 = test system: DLD-1
NCI-H23 = test system: NCI-H23
LXFL 529 = test system: LXFL 529
RPMI-8226 = test system: RPMI-8226
OVCAR-3 = test system: OVCAR-3
HT-29 = test system: HT-29
A498 = test system: A498
SNB-75 = test system: SNB-75
M19-MEL = test system: M19-MEL
HOP-18 = test system: HOP-18
DMS-273 = test system: DMS-273
KM12 = test system: KM12
HCT-116 = test system: HCT-116
LOX IMVI = test system: LOX IMVI
HCT-15 = test system: HCT-15
OVCAR-5 = test system: OVCAR-5
SK-OV-3 = test system: SK-OV-3
K562 = test system: K562
A549 = test system: A549
OVCAR-4 = test system: OVCAR-4
NCI-H226 = test system: NCI-H226
SK-MEL-28 = test system: SK-MEL-28
DMS-114 = test system: DMS-114
NCI-H522 = test system: NCI-H522
SR = test system: SR

SMILES: COC(=O)CSc1ccccc1
- GI50 (SK-MEL-5): > 100 µM (inactive)
- GI50 (Malme-3M): 25.4 µM (inactive)
- GI50 (SF-295): > 100 µM (inactive)
- GI50 (HL-60): > 100 µM (inactive)
- GI50 (SF-539): > 100 µM (inactive)
- GI50 (TK-10): > 100 µM (inactive)
- GI50 (XF498): > 100 µM (inactive)
- GI50 (SF-268): > 100 µM (inactive)
- GI50 (MOLT-4): > 100 µM (inactive)
- GI50 (SNB-19): > 100 µM (inactive)
- GI50 (M14): > 100 µM (inactive)
- GI50 (SW-620): > 100 µM (inactive)
- GI50 (IGROV-1): > 100 µM (inactive)
- GI50 (SK-MEL-2): 11.5 µM (inactive)
- GI50 (COLO 205): > 100 µM (inactive)
- GI50 (EKVX): > 100 µM (inactive)
- GI50 (ACHN): > 100 µM (inactive)
- GI50 (RXF 631): > 100 µM (inactive)
- GI50 (U-251): > 100 µM (inactive)
- GI50 (HOP-62): > 100 µM (inactive)
- GI50 (SN12C): > 100 µM (inactive)
- GI50 (CCRF-CEM): > 100 µM (inactive)
- GI50 (RXF 393): > 100 µM (inactive)
- GI50 (UACC-257): > 100 µM (inactive)
- GI50 (HOP-92): 50.9 µM (inactive)
- GI50 (786-0): 11.6 µM (inactive)
- GI50 (HCC 2998): > 100 µM (inactive)
- GI50 (SNB-78): > 100 µM (inactive)
- GI50 (UO-31): > 100 µM (inactive)
- GI50 (CAKI-1): > 100 µM (inactive)
- GI50 (OVCAR-8): > 100 µM (inactive)
- GI50 (KM-20L2): > 100 µM (inactive)
- GI50 (UACC-62): > 100 µM (inactive)
- GI50 (NCI-H460): > 100 µM (inactive)
- GI50 (DLD-1): > 100 µM (inactive)
- GI50 (NCI-H23): > 100 µM (inactive)
- GI50 (LXFL 529): > 100 µM (inactive)
- GI50 (RPMI-8226): > 100 µM (inactive)
- GI50 (OVCAR-3): > 100 µM (inactive)
- GI50 (HT-29): > 100 µM (inactive)
- GI50 (A498): > 100 µM (inactive)
- GI50 (SNB-75): > 100 µM (inactive)
- GI50 (M19-MEL): > 100 µM (inactive)
- GI50 (HOP-18): > 100 µM (inactive)
- GI50 (DMS-273): > 100 µM (inactive)
- GI50 (KM12): > 100 µM (inactive)
- GI50 (HCT-116): > 100 µM (inactive)
- GI50 (LOX IMVI): > 100 µM (inactive)
- GI50 (HCT-15): > 100 µM
- GI50 (OVCAR-5): > 100 µM (inactive)
- GI50 (SK-OV-3): > 100 µM (inactive)
- GI50 (K562): > 100 µM (inactive)
- GI50 (A549): > 100 µM (inactive)
- GI50 (OVCAR-4): > 100 µM (inactive)

SMILES: CNS(=O)(=O)NNS(=O)(=O)c1ccc(Br)cc1
- GI50 (SK-MEL-5): > 100 µM (inactive)
- GI50 (Malme-3M): > 100 µM (inactive)
- GI50 (HL-60): > 100 µM (inactive)
- GI50 (SF-539): > 100 µM (inactive)
- GI50 (TK-10): > 100 µM (inactive)
- GI50 (XF498): > 100 µM (inactive)
- GI50 (SF-268): > 100 µM (inactive)
- GI50 (SNB-19): 0.309 µM (active)
- GI50 (M14): > 100 µM (inactive)
- GI50 (SW-620): > 100 µM (inactive)
- GI50 (IGROV-1): > 100 µM (inactive)
- GI50 (SK-MEL-2): > 100 µM (inactive)
- GI50 (COLO 205): > 100 µM (inactive)
- GI50 (NCI-H226): > 100 µM (inactive)
- GI50 (EKVX): > 100 µM (inactive)
- GI50 (ACHN): > 100 µM (inactive)
- GI50 (RXF 631): > 100 µM (inactive)
- GI50 (SK-MEL-28): > 100 µM (inactive)
- GI50 (U-251): 28.3 µM (inactive)
- GI50 (HOP-62): > 100 µM (inactive)
- GI50 (DMS-114): > 100 µM (inactive)
- GI50 (CCRF-CEM): > 100 µM (inactive)
- GI50 (RXF 393): > 100 µM (inactive)
- GI50 (NCI-H522): > 100 µM (inactive)
- GI50 (UACC-257): > 100 µM (inactive)
- GI50 (HOP-92): 32.1 µM (inactive)
- GI50 (786-0): 63.1 µM (inactive)
- GI50 (HCC 2998): > 100 µM (inactive)
- GI50 (SNB-78): > 100 µM (inactive)
- GI50 (UO-31): 20.6 µM (inactive)
- GI50 (CAKI-1): > 100 µM (inactive)
- GI50 (OVCAR-8): > 100 µM (inactive)
- GI50 (KM-20L2): > 100 µM (inactive)
- GI50 (UACC-62): > 100 µM (inactive)
- GI50 (NCI-H460): 42.7 µM (inactive)
- GI50 (DLD-1): > 100 µM (inactive)
- GI50 (NCI-H23): > 100 µM (inactive)
- GI50 (LXFL 529): > 100 µM (inactive)
- GI50 (RPMI-8226): > 100 µM (inactive)
- GI50 (HT-29): > 100 µM (inactive)
- GI50 (A498): > 100 µM (inactive)
- GI50 (SNB-75): 47 µM (inactive)
- GI50 (M19-MEL): > 100 µM (inactive)
- GI50 (HOP-18): 2.64 µM (inactive)
- GI50 (DMS-273): > 100 µM (inactive)
- GI50 (HCT-116): 99.3 µM (inactive)
- GI50 (LOX IMVI): > 100 µM (inactive)
- GI50 (HCT-15): > 100 µM
- GI50 (OVCAR-5): > 100 µM (inactive)
- GI50 (SK-OV-3): > 100 µM (inactive)
- GI50 (K562): > 100 µM (inactive)
- GI50 (A549): > 100 µM (inactive)
- GI50 (OVCAR-4): > 100 µM (inactive)

SMILES: CCOC(=O)CCn1ncc(Cl)c(Cl)c1=O
- GI50 (SK-MEL-5): 11.8 µM (inactive)
- GI50 (Malme-3M): 14.2 µM (inactive)
- GI50 (SF-295): 19.5 µM (inactive)
- GI50 (HL-60): 2.67 µM (inactive)
- GI50 (SF-539): 13.9 µM (inactive)
- GI50 (TK-10): 17.9 µM (inactive)
- GI50 (XF498): 20.5 µM (inactive)
- GI50 (SF-268): 7.55 µM (inactive)
- GI50 (MOLT-4): 3.13 µM (inactive)
- GI50 (SNB-19): 13.5 µM (inactive)
- GI50 (M14): 4.21 µM (inactive)
- GI50 (SW-620): 3.31 µM (inactive)
- GI50 (IGROV-1): 11.1 µM (inactive)
- GI50 (SK-MEL-2): 8.53 µM (inactive)
- GI50 (COLO 205): 9.23 µM (inactive)
- GI50 (NCI-H226): 10.9 µM (inactive)
- GI50 (EKVX): 18.7 µM (inactive)
- GI50 (ACHN): 17 µM (inactive)
- GI50 (RXF 631): 2.97 µM (inactive)
- GI50 (SK-MEL-28): 2.65 µM (inactive)
- GI50 (U-251): 5.89 µM (inactive)
- GI50 (HOP-62): 21.4 µM (inactive)
- GI50 (DMS-114): 2.1 µM (inactive)
- GI50 (SN12C): 13.7 µM (inactive)
- GI50 (CCRF-CEM): 2.9 µM (inactive)
- GI50 (RXF 393): 11.4 µM (inactive)
- GI50 (NCI-H522): 0.291 µM (active)
- GI50 (UACC-257): 11.2 µM (inactive)
- GI50 (SR): 2.89 µM (inactive)
- GI50 (HOP-92): 11.9 µM (inactive)
- GI50 (786-0): 14.3 µM (inactive)
- GI50 (HCC 2998): 3.93 µM (inactive)
- GI50 (SNB-78): 6.22 µM (inactive)
- GI50 (UO-31): 15.7 µM (inactive)
- GI50 (CAKI-1): 6.18 µM (inactive)
- GI50 (OVCAR-8): 5.98 µM (inactive)
- GI50 (KM-20L2): 14.2 µM (inactive)
- GI50 (UACC-62): 6.3 µM (inactive)
- GI50 (NCI-H460): 11.9 µM (inactive)
- GI50 (DLD-1): 5.5 µM (inactive)
- GI50 (NCI-H23): 2.27 µM (inactive)
- GI50 (LXFL 529): 3.84 µM (inactive)
- GI50 (RPMI-8226): 2.38 µM (inactive)
- GI50 (OVCAR-3): 3.57 µM (inactive)
- GI50 (HT-29): 4.24 µM (inactive)
- GI50 (A498): 22.7 µM (inactive)
- GI50 (SNB-75): 14.8 µM (inactive)
- GI50 (M19-MEL): 2.58 µM (inactive)
- GI50 (HOP-18): 3.99 µM (inactive)
- GI50 (DMS-273): 9.46 µM (inactive)
- GI50 (KM12): 4.86 µM (inactive)
- GI50 (HCT-116): 11.9 µM (inactive)
- GI50 (LOX IMVI): 8.53 µM (inactive)
- GI50 (HCT-15): 2.15 µM
- GI50 (OVCAR-5): 16.7 µM (inactive)
- GI50 (SK-OV-3): 26.7 µM (inactive)
- GI50 (K562): 2.79 µM (inactive)
- GI50 (A549): 15.6 µM (inactive)
- GI50 (OVCAR-4): 1.54 µM (inactive)
